Measurements taken from patent US6433150B1, “Anthracycline analogues bearing latent alkylating substituents” (Board of Regents, The University of Texas System, priority 1990, dated 2002).
Read-outs that look alike come from different tables or passages of the source.

Experiments:
[1] = system: P388; settings: cited from earlier work
[2] = system: CEM cells (human T-lymphoblastic cell line); assay: Cytotoxicity studies, CEM cells; assay type: cell-based; settings: for IC50: six days incubation with drug at 37° C.
[3] = system: CEM (VLB) cells (human T-lymphoblastic cell line resistant to Velban (vinblastine)); assay: Cytotoxicity studies, CEM (VLB) cells; assay type: cell-based; settings: for Resistance index ([CEM(VLB)]/[CEM]): ratio of IC50 values; for IC50: six days incubation with drug at 37° C., Velban (vinblastine) resistant line
[4] = system: 8226R40 human myeloma cells; assay: Potency to 8226R40 human myeloma cells; assay type: cell-based
[5] = Solubility in aqueous media; assay type: physicochemical
From the text: (§1) To the best of applicants' knowledge, dialdehyde monoacetals such as 10 have not been reported previously. [These should be versatile synthetons in organic synthesis since the acetal ester groups can be cleaved under extremely mild conditions (weak base or esterase activity)]. Condensation of 10 with doxorubicin, 11, in the presence of NaCNBH3 generated 2a directly in >50% yield. Evidence for the structure of 2a was obtained by ^1H and COSY NMR, and by mass spectrometry.

[6] = Stability at neutral pH; assay type: physicochemical
From the text: as §1

## COc1cccc2c1C(=O)c1c(O)c3c(c(O)c1C2=O)C[C@@](O)(C(C)=O)C[C@@H]3O[C@H]1C[C@H](N2CCOCC2)[C@H](O)[C@H](C)O1 [3′-Deamino-3-(4-morpholinyl)daunorubicin]
[1]
  T/C value against P388: 166%
  active dose relative to the dose of doxorubicin: one-fortieth

## COc1cccc2c1C(=O)c1c(O)c3c(c(O)c1C2=O)C[C@@](O)(C(=O)CO)C[C@@H]3O[C@H]1C[C@H](NCCCCC(OC(C)=O)OC(C)=O)[C@H](O)[C@H](C)O1.Cl [Compound 2a, N-(5,5-Diacetoxypentyl) doxorubicin hydrochloride]
[2]; relative to doxorubicin
  times more toxic to the parent CEM cells than doxorubicin: 60 times
[2]
  IC50: 0.15 nM
[3]; compared with doxorubicin
  cross resistance against the velban resistant mutant: markedly reduced cross resistance
[3]
  Resistance index ([CEM(VLB)]/[CEM]): 6
  IC50: 1 nM
[4]
  IC50: 1.5 nM
[4]; relative to doxorubicin
  times more potent to 8226R40 human myeloma cells than doxorubicin: 400 times
[5]
  solubility in aqueous media: freely soluble
[6]
  stability at neutral pH: stable

## COc1cccc2c1C(=O)c1c(O)c3c(c(O)c1C2=O)C[C@@](O)(C(=O)CO)C[C@@H]3O[C@H]1C[C@H](N)[C@H](O)[C@H](C)O1 [Doxorubicin, reference compound]
[2]; Homo sapiens, CCRF-CEM, 144 h
  IC50: 10 nM
[3]; Homo sapiens, CEM-VLB, 144 h
  IC50: 1340 nM
[3]
  Resistance index ([CEM(VLB)]/[CEM]): 134
[4]; Homo sapiens
  IC50: 600 nM
[1]
  T/C value against P388: 160%

## N-(2,2-Diacetoxyethyloxyethyl) doxorubicin HCl [Compound 2b]
[2]
  IC50: 3 nM
[3]
  Resistance index ([CEM(VLB)]/[CEM]): 5
  IC50: 15 nM
